Consider 1 compound from patent US20050266509A1, “Interaction of NMDA receptor with protein tyrosine phosphatase” (AGY Therapeutics, Inc., priority 2003, published 2005).

The IC50 is the concentration at which inhibition is half-maximal. Read a high IC50 as weaker potency in that assay.

Common to all, as to format: biochemical
In one experiment the target is T1, PTPIB (Homo sapiens, UniProt P18031).
T1 sequence (P18031 1-435): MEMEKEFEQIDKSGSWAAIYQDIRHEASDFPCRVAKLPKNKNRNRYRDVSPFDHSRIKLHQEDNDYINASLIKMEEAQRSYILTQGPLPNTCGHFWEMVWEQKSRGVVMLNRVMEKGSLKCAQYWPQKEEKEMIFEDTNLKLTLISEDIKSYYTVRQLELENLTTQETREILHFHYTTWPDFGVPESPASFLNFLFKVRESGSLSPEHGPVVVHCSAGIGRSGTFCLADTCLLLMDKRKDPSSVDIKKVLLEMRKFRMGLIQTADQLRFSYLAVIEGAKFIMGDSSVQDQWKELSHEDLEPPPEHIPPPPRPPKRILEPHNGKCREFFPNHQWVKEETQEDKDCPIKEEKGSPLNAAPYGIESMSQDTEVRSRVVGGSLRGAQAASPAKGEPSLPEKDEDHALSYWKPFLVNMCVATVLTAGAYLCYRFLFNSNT
Nature of the experiment: FRET phosphatase assay, PTPIB. Here is the method:
(§1) For the enzyme activity assay, 2.5 μl of compound, 12.5 μl of enzyme, and 10 μl of substrate (separated by air gaps) are added to columns 3 through 24 by the Biomek FX in a single dispense. After the dispense, the tips are washed with DMSO and water for re-use between each quadrant. Once the assay plates are set up, they are incubated at 27° C. for 45 minutes. Then 20 μl of detection buffer is added to stop the reaction and to allow the Europium antibody (Eu-Ab) and streptavidin-APC to bind to the substrate.
(§2) The plates are then placed in the plate reader, an Analyst HT. Excitation light at 360 nm is used to excite the Europium antibody with an emission at 620 nm. Fluorescence resonance energy transfer (FRET) from Eu-Ab to APC will only occur when they are in close proximity. Therefore, when an APC emission is observed at 665 nm the enzyme has been inhibited from removing the phosphate group from the substrate. The FRET assay is time-resolved (TR), where there is a delay between excitation light and collection of emission signals. This reduces the amount of stray light created by short-lived fluorescing molecules. The Analyst HT measures APC and Europium emission signals and calculates the ratio between the two intensities. Typical intensities for the Europium is ˜2000 and APC is ˜600.
(§3) The following compounds were tested by FRET against the listed phosphatases, and the IC50 were obtained. […]

The target of another experiment is T2, T Cell (Homo sapiens, UniProt P17706).
T2 sequence (P17706 1-415): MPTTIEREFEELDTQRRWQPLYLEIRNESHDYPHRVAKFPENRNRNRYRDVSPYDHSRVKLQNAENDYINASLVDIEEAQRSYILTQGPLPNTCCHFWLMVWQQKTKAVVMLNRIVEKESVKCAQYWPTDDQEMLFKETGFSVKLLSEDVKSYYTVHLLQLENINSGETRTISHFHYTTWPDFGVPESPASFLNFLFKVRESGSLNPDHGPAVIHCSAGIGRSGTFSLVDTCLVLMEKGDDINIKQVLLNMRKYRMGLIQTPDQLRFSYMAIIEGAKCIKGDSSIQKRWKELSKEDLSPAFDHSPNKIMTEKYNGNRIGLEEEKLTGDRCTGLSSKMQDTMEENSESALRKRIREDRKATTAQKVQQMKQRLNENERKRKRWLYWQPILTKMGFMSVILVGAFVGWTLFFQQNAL
Briefly: FRET phosphatase assay, T Cell. Here is the method: as §1, §2, §3

Another experiment deals with T3, CD45 (Homo sapiens, UniProt P08575).
T3 sequence (P08575 26-1306): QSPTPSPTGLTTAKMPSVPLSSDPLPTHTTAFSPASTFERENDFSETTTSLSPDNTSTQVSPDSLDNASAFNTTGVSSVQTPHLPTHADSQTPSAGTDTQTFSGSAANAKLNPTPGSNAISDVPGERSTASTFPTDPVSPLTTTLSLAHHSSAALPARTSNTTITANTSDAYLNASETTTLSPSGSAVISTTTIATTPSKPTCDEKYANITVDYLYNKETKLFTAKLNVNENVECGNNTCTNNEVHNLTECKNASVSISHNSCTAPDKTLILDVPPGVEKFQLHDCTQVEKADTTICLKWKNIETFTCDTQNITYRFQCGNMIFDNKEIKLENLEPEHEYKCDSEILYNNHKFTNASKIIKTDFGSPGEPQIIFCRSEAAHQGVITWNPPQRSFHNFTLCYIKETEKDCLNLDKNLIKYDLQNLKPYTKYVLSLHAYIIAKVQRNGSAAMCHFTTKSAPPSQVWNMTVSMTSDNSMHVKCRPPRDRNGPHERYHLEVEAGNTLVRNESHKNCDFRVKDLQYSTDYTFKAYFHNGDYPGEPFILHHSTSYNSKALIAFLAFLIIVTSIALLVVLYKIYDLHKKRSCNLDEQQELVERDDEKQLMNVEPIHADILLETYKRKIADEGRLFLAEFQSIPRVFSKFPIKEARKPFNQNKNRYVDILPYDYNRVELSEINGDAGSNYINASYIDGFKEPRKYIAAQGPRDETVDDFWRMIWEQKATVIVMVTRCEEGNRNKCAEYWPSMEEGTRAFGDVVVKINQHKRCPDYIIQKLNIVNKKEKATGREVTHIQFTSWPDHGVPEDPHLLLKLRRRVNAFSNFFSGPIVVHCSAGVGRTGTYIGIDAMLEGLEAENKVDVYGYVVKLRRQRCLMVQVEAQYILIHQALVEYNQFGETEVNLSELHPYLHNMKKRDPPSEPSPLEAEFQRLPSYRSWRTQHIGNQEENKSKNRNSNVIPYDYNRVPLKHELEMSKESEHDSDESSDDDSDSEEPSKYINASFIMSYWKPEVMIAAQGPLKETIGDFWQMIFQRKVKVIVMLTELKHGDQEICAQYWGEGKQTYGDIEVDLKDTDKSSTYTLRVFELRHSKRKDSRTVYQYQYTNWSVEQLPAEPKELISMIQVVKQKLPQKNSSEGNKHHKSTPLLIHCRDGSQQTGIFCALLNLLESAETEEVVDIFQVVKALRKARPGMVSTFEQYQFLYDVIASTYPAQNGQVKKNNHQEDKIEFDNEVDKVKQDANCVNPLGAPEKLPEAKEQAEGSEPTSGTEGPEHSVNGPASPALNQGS
Nature of the experiment: FRET phosphatase assay, CD45. The method, then:
as §1, §2, §3

The target of a further experiment is PTPB (Homo sapiens, UniProt P23467). Nature of the experiment: FRET phosphatase assay, PTPB. Here is the method:
as §1, §2, §3

PTPB, sequence (P23467 1643-1997 limits assumed): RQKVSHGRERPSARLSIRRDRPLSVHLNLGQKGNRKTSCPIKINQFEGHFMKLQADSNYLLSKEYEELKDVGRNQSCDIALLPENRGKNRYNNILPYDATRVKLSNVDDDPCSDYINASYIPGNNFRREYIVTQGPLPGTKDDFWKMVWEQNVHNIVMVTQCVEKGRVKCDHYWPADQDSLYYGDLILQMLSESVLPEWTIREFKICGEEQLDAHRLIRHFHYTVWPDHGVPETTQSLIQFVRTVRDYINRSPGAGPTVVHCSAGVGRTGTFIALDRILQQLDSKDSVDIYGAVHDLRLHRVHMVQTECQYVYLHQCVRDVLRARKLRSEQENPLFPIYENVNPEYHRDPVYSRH

As for `CCOC(=O)C(=CC1=C/C(=C/N(C)C)C(=O)O1)C(=O)OCC` [AGY- 0046293], the 50% inhibitory concentration (IC50) against PTPIB turned out to be 41.1 µM; against T Cell, 6720 µM; against CD45, 90 µM; at PTPB it was 23.2 µM.
